Measurements published in publication PMC11578313, “Miniaturized Modular Click Chemistry‐enabled Rapid Discovery of Unique SARS‐CoV‐2 M^pro Inhibitors With Robust Potency and Drug‐like Profile” (Advanced Science, 2024).
Several values for one entry are separate records, joined by “and”; a condition that tells them apart may be missing. Equal entries are not always repeated. Where two headings read alike, the source gives them in different places.

Experiment: In vivo pharmacokinetic study in male ICR mice (compound alone)
Settings: for C0: read-out: C0
Protocol: The pharmacokinetics profile of the newly developed antiviral compound C5N17B was subsequently evaluated in male ICR mice that were free from specific pathogens, aiming to assess its potential for therapeutic application in vivo.
A total of six male ICR mice were randomly assigned to two groups. One group received the test drug intravenously at a dosage of 2 mg kg^−1, while the other group received oral administration at a dosage of 10 mg kg^−1. To prepare solutions of C5N17B, 2.39 mg compound was dissolved in a mixture of 0.119 mL DMSO, 0.238 mL polyoxyl 15 hydroxystearate (Solutol), and 2.027 mL normal saline. For the intravenous group, blood samples were collected from the sinus jugular into heparinized centrifugation tubes at various time points after dosing: 5, 15, 30 min, 1, 2, 4, 6, 8, and 24 h. As for the oral administration group, blood samples were collected at similar time points (0.05 mL of blood each time). The collected blood samples were then centrifuged at a speed of 4000 rpm for 10 min to separate plasma, which was subsequently stored at −20 °C until further LC‐MS analysis to determine the concentration of C5N17B. Briefly, the analysis involved adding 20 µL of plasma, sample calibration standard, quality control, and dilution quality control, and blank samples into respective wells on a 96‐well plate. Then each sample was quenched with 200 µL of internal standard (the blank sample was quenched with 200 µL of ACN: MeOH = 1:1), followed by vortex‐mixed for 5 min, and centrifuged for 0.5 min at 4000 rpm, 4 °C. Next, a 100 µL portion of supernatant was transferred to another clean 96‐well plate and diluted with 100 µL of water, vortex‐mixed for 5 min and centrifuged for 10 min at 4000 rpm, 4 °C, then the sample was injected for LC‐MS/MS analysis. All samples were quantified using an LC‐MS/MS‐AR Triple Quad 5500+ (SCIEX, USA) and the ExionLC liquid phase system. The mobile phase was 0.1% formic acid‐water/ACN with gradient elute at a flow rate of 0.8 mL mi^−1n (total time 2.20 min), and the detection wavelength was 225 nm. All blood samples were centrifuged using an Eppendorf 5424R centrifuge and quantified using an LC‐MS/MS‐AR Triple Quad 5500+ (SCIEX, USA). The pharmacokinetic parameters were calculated by WinNolin 8.2 software.

[1] = PO 10 mg/kg, individual mice 4-6, 10 mg/kg
[2] = i.v. 2 mg kg^−1, male ICR mice, n = 3

Which MRTINF_pred [1] does the source give for `Cc1cncc(C(=O)N2C[C@H]3CC[C@@H](C2)N3[C@H](c2cccc(F)c2)c2cn(CCc3ccsc3)nn2)c1` [Compound C5N17B] here?
Its MRTINF_pred is 295 min and 184.93 min and 381.5 min.

What about the MRTlast [1] of the same compound?
The MRTlast was 113.8 min and 110 min.

And the Tlast [1]?
The Tlast was 4 h and 6 h.

What about the Vz_F_obs [1] of the same compound?
Its Vz_F_obs is 837.29 L/kg and 630.24 L/kg and 684.762 L/kg.

What about the Vz_F_pred [1] of the same compound?
The Vz_F_pred was 906.828 L/kg and 630.882 L/kg and 737.02 L/kg.

What about the “F, Mean” value (PO 10 mg/kg, mean of mice 4#-6#) of the same compound?
The value was 13.0%.

What about the “C0, i.v.” value [2] of the same compound?
The value was 514 ± 164.7 ng/mL.

What about the “t1/2, i.v.” value [2] of the same compound?
Its value is 6.36 ± 0.341 min.

And the concentration at 5 min (male, ICR, mouse, plasma, iv, 2 mg/kg, IV 2 mg/kg, 5 min (5 min), mouse plasma, individual mice 1#-3#, read-out: Plasma concentration (Calculated Concentration))?
Its concentration at 5 min is 292 ng/mL.

What about the concentration at 5 min (male, ICR, mouse, plasma, iv, 2 mg/kg, IV 2 mg/kg, 5 min, individual mice, read-out: plasma concentration) of the same compound?
Its concentration at 5 min is 233 ng/mL.

And the concentration at 5 min (male, ICR, mouse, plasma, iv, 2 mg/kg, IV 2 mg/kg, 5 min, mean of mice 1#-3#, read-out: Plasma concentration, Mean)?
The concentration at 5 min was 237 ng/mL.

What about the concentration at 0.5 h (male, ICR, mouse, plasma, iv, 2 mg/kg, IV 2 mg/kg, 0.5 h (30 min), mouse plasma, individual mice 1#-3#, read-out: Plasma concentration (Calculated Concentration)) of the same compound?
The concentration at 0.5 h was 18.4 ng/mL.

What about the concentration at 0.5 h (male, ICR, mouse, plasma, iv, 2 mg/kg, IV 2 mg/kg, 0.5 h, individual mice, read-out: plasma concentration) of the same compound?
The concentration at 0.5 h was 16.1 ng/mL.

And the concentration at 0.5 h (male, ICR, mouse, plasma, iv, 2 mg/kg, IV 2 mg/kg, 0.50 h, mean of mice 1#-3#, read-out: Plasma concentration, Mean)?
The concentration at 0.5 h was 14.9 ng/mL.

What about the concentration at […] (male, ICR, mouse, plasma, iv, 2 mg/kg, IV 2 mg/kg, […] (15 min), mouse plasma, individual mice 1#-3#, read-out: Plasma concentration (Calculated Concentration)) of the same compound?
Its concentration at […] is 55.3 ng/mL.

And the AUC(0-t) (male, ICR, mouse, plasma, iv, 2 mg/kg, IV 2 mg/kg, individual mice 1#-3#, read-out: AUC0-t)?
The AUC(0-t) was 78.3 ng·h/mL.

What about the AUC(0-inf) (male, ICR, mouse, plasma, iv, 2 mg/kg, IV 2 mg/kg, individual mice 1#-3#, read-out: AUC0-∞) of the same compound?
The AUC(0-inf) was 81.1 ng·h/mL.

And the C0 (male, ICR, mouse, plasma, iv, 2 mg/kg, IV 2 mg/kg, individual mice 1#-3#)?
The C0 was 671 ng/mL.

What about the clearance (male, ICR, mouse, plasma, iv, 2 mg/kg, IV 2 mg/kg, individual mice 1#-3#, read-out: Cl (converted)) of the same compound?
Its clearance is 411 mL/min/kg.

And the Cmax (male, ICR, mouse, plasma, iv, 2 mg/kg, IV 2 mg/kg, individual mice 1#-3#, read-out: Cmax)?
The Cmax was 292 ng/mL.

What about the MRT last (male, ICR, mouse, plasma, iv, 2 mg/kg, IV 2 mg/kg, individual mice 1#-3#, read-out: MRT0-t) of the same compound?
The MRT last was 5.42 min.

What about the MRT inf (male, ICR, mouse, plasma, iv, 2 mg/kg, IV 2 mg/kg, individual mice 1#-3#, read-out: MRT0-∞) of the same compound?
The MRT inf was 6.6 min.

What about the half-life (male, ICR, mouse, plasma, iv, 2 mg/kg, IV 2 mg/kg, individual mice 1#-3#, read-out: T1/2 (converted)) of the same compound?
The half-life was 6.42 min.

And the Tmax (male, ICR, mouse, plasma, iv, 2 mg/kg, IV 2 mg/kg, individual mice 1#-3#, read-out: Tmax)?
Its Tmax is 5 min.

And the Vd (male, ICR, mouse, plasma, iv, 2 mg/kg, IV 2 mg/kg, individual mice 1#-3#, read-out: Vz)?
Its Vd is 3.82 L/kg.

And the AUC(0-inf) (male, ICR, mouse, plasma, iv, 2 mg/kg, IV 2 mg/kg, individual mice 1-3, read-out: AUCINF_obs)?
The AUC(0-inf) was 81.1 ng·h/mL.

What about the AUC(0-inf) (male, ICR, mouse, plasma, iv, 2 mg/kg, IV 2 mg/kg, individual mice 1-3, read-out: AUCINF_pred) of the same compound?
Its AUC(0-inf) is 80.7 ng·h/mL.

And the AUC (male, ICR, mouse, plasma, iv, 2 mg/kg, IV 2 mg/kg, individual mice 1-3, read-out: AUCall)?
The AUC was 78.3 ng·h/mL.

And the AUC(0-t) (male, ICR, mouse, plasma, iv, 2 mg/kg, IV 2 mg/kg, individual mice 1-3, read-out: AUClast)?
Its AUC(0-t) is 78.3 ng·h/mL.

And the C0 (male, ICR, mouse, plasma, iv, 2 mg/kg, IV 2 mg/kg, individual mice 1-3)?
Its C0 is 671 ng/mL.

And the clearance (male, ICR, mouse, plasma, iv, 2 mg/kg, IV 2 mg/kg, individual mice 1-3, read-out: Cl_obs (converted))?
The clearance was 411 mL/min/kg.

What about the concentration at 0.5 h (male, ICR, mouse, plasma, iv, 2 mg/kg, IV 2 mg/kg, individual mice 1-3, read-out: Clast) of the same compound?
Its concentration at 0.5 h is 18.4 ng/mL.

What about the Cmax (male, ICR, mouse, plasma, iv, 2 mg/kg, IV 2 mg/kg, individual mice 1-3, read-out: Cmax) of the same compound?
The Cmax was 292 ng/mL.

What about the k el (male, ICR, mouse, plasma, iv, 2 mg/kg, IV 2 mg/kg, individual mice 1-3, read-out: Lambda_z (converted)) of the same compound?
The k el was 0.00179 s⁻¹.

What about the MRT inf (male, ICR, mouse, plasma, iv, 2 mg/kg, IV 2 mg/kg, individual mice 1-3, read-out: MRTINF_obs) of the same compound?
The MRT inf was 6.61 min.

What about the MRT inf (male, ICR, mouse, plasma, iv, 2 mg/kg, IV 2 mg/kg, individual mice 1-3, read-out: MRTINF_pred) of the same compound?
Its MRT inf is 6.45 min.

What about the MRT last (male, ICR, mouse, plasma, iv, 2 mg/kg, IV 2 mg/kg, individual mice 1-3, read-out: MRTlast) of the same compound?
The MRT last was 5.42 min.

And the Tmax (male, ICR, mouse, plasma, iv, 2 mg/kg, IV 2 mg/kg, individual mice 1-3, read-out: Tmax)?
Its Tmax is 5 min.

What about the AUC(0-t) (male, ICR, mouse, plasma, iv, 2 mg/kg, IV 2 mg/kg, mean of mice 1#-3#, read-out: AUC0-t, Mean) of the same compound?
Its AUC(0-t) is 63.6 ng·h/mL.

What about the AUC(0-inf) (male, ICR, mouse, plasma, iv, 2 mg/kg, IV 2 mg/kg, mean of mice 1#-3#, read-out: AUC0-∞, Mean) of the same compound?
Its AUC(0-inf) is 65.9 ng·h/mL.

What about the clearance (male, ICR, mouse, plasma, iv, 2 mg/kg, IV 2 mg/kg, mean of mice 1#-3#, read-out: Cl, Mean (converted)) of the same compound?
The clearance was 524 mL/min/kg.

What about the Cmax (male, ICR, mouse, plasma, iv, 2 mg/kg, IV 2 mg/kg, mean of mice 1#-3#, read-out: Cmax, Mean) of the same compound?
The Cmax was 237 ng/mL.

And the MRT last (male, ICR, mouse, plasma, iv, 2 mg/kg, IV 2 mg/kg, mean of mice 1#-3#, read-out: MRT0-t, Mean)?
Its MRT last is 5.81 min.

And the MRT inf (male, ICR, mouse, plasma, iv, 2 mg/kg, IV 2 mg/kg, mean of mice 1#-3#, read-out: MRT0-∞, Mean)?
Its MRT inf is 6.96 min.

And the half-life (male, ICR, mouse, plasma, iv, 2 mg/kg, IV 2 mg/kg, mean of mice 1#-3#, read-out: T1/2, Mean (converted))?
The half-life was 6.36 min.

What about the Tmax (male, ICR, mouse, plasma, iv, 2 mg/kg, IV 2 mg/kg, mean of mice 1#-3#, read-out: Tmax, Mean) of the same compound?
Its Tmax is 5 min.

And the Vd (male, ICR, mouse, plasma, iv, 2 mg/kg, IV 2 mg/kg, mean of mice 1#-3#, read-out: Vz, Mean)?
Its Vd is 4.79 L/kg.

What about the AUC (male, ICR, mouse, plasma, iv, 2 mg/kg, i.v. 2 mg kg^−1, male ICR mice, n = 3, read-out: AUC0‐t, i.v.) of the same compound?
The AUC was 63.6 ± 14.2 ng·h/mL.
